Laboratory results reported in patent publication EP1321467A2, “High affinity inhibitors for target validation and uses thereof” (Princeton University, priority 1999, dated 2000).
Entries after “also recorded” stand apart in the source; their conditions may differ. Read-outs that look alike come from different tables or passages of the source.

How the values were obtained:
[1] = tested on: wild-type protein tyrosine kinase; test: Screening of nucleotide analogs in murine lymphocyte lysate, anti-phosphotyrosine immunoblot; type: biochemical; details: 100 uM nucleotide triphosphate, 37°C, 5 min
[2] = biological target: T1, I338G v-Src (Rous sarcoma virus subgroup A, UniProt P00524, DEL77-225/I338G); test: biochemical; type: biochemical
T1 construct: catalytic domain of the target kinase, I338G v-Src, which was expressed in bacteria and purified as a glutathione-S-transferase (GST) fusion protein; made in house; host or cells: E. coli DH5a, pGEX-KT

[3] = tested on: I338G v-Src; test: biochemical; type: biochemical; details: for increase in affinity over previously optimized inhibitors of wild type kinases: versus PP1 on Fyn
[4] = biological target: T2, WT v-Src (Rous sarcoma virus subgroup A, UniProt P00524, DEL77-225); test: biochemical; type: biochemical; set-up: in vitro inhibition of WT v-Src / inhibition of WT v-Src: dose or concentration left out as unconfirmed
T2 construct: glutathione-S-transferase fusion proteins of wild type v-Src catalytic domain, I338G v-Src SH1, and WT Fyn into the pGEX-KT plasmid; GST (N); made in house; host or cells: E. coli DH5a, pGEX-KT

[5] = tested on: I338G v-Src transformed NIH3T3 cells; test: Inhibition of v-Src in NIH3T3 fibroblasts, phosphotyrosine blot; type: cell-based, murine
[6] = tested on: WT v-Src transformed NIH3T3 cells; test: as above; type: cell-based, murine
[7] = tested on: I338G v-Src transformed NIH3T3 fibroblasts; test: Microscopy of cell morphology and polymerized actin; type: cell-based, murine
[8] = tested on: WT v-Src transformed NIH3T3 fibroblasts; test: as above; type: cell-based, murine; details: 250 nM 6a, 16 hours
[9] = tested on: Jurkat cells; test: Tyrosine phosphorylation in pervanadate treated Jurkat cells; type: cell-based, human; details: 500nM 6a, 30 min, then 0.5 mM pervanadate
[10] = biological target: T3, F80G CDK2 (Homo sapiens, UniProt P24941, F80G); test: In vitro inhibition of phosphorylation of an exogenous substrate, kinase panel; type: biochemical
T3 construct: made in house

[11] = biological target: T4, F89G CAMK IIα (Homo sapiens, UniProt Q9UQM7, F89G); test: as above; type: biochemical
T4 construct: made in house
T4 sequence (Q9UQM7 whole entry F89G): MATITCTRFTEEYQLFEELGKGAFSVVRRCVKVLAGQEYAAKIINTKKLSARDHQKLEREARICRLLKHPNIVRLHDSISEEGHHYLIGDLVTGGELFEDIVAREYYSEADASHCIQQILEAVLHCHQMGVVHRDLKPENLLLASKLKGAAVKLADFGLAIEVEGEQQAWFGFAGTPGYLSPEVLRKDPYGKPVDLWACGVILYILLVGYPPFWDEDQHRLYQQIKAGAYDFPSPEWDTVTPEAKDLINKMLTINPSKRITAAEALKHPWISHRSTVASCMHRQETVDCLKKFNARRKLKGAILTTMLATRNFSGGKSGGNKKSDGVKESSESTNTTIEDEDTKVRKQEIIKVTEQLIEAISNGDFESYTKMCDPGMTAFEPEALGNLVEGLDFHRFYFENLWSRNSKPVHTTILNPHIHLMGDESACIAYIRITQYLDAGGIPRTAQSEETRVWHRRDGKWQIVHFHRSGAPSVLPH

[12] = tested on: glycine mutants; test: In vitro inhibition, all glycine mutant kinases of the panel; type: biochemical; details: read-out: IC 50's for all of the glycine mutants
[13] = tested on: panel of wild-type protein kinases; test: In vitro inhibition, panel of wild-type protein kinases; type: biochemical
[14] = biological target: T5, Cdc28·MBP-C1b2 (Saccharomyces cerevisiae, UniProt P00546); test: 1-NM-PP1 IC50, Histone H1 phosphorylation; type: biochemical; details: text b289; read-out: IC50
T5 construct: His6 (C); made in house; host or cells: Sf9 insect cells, baculovirus, co-infected with Cak1-HA3 (Cdc28-His6); bacteria (MBP-Clb2)
T5 sequence (P00546 whole entry): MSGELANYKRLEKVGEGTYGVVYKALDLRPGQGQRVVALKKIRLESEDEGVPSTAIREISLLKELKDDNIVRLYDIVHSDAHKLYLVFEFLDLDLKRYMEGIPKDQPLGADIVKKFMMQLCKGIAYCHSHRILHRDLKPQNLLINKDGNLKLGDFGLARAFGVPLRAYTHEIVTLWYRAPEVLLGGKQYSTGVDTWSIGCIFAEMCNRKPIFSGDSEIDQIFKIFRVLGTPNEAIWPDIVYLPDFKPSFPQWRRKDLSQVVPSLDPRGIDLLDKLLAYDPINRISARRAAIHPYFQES
T5 sequence (P24869 whole entry partner): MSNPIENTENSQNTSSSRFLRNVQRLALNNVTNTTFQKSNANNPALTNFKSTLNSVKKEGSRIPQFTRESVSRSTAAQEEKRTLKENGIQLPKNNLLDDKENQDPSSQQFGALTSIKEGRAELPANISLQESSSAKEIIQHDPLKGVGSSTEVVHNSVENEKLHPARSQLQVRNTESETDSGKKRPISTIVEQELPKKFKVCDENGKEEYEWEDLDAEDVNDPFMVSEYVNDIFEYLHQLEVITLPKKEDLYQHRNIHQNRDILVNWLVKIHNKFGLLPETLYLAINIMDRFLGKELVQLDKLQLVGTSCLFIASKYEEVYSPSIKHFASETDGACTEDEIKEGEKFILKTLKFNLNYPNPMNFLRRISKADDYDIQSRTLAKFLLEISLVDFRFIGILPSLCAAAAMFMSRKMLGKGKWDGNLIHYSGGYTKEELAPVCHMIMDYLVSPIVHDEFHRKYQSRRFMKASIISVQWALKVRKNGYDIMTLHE
Protocol: (§1) Purification of Cdc28-His6, Cdc28-as1-His6, MBP-Clb2: Lysate was prepared from insect cells co-infected with baculoviruses encoding Cdc28-His6 or Cdc28-as1-His6 and Cak1-HA3 (151). Cdc28-His6 and Cdc28-as1-His6 were purified by metal affinity chromatography as described (152), followed by […]. MBP-Clb2 was purified from lysates of bacteria expressing MBP-Clb2 (a gift of R. Deshaies) on an amylose column (NEBL), followed by anion-exchange chromatography (Pharmacia Q Sepharose Fast Flow).
(§2) Phosphate incorporation was determined at each inhibitor concentration by scintillation counting.

[15] = tested on: cdc28-as1 strain; test: Yeast growth; type: cell-based, Saccharomyces cerevisiae; details: concentrations without effect on wild-type strains
[16] = tested on: wild-type cells; test: Yeast growth; type: cell-based, Saccharomyces cerevisiae; details: concentrations that ablate Cdc28-as1 growth
[17] = tested on: fus3-as1 strain; test: Yeast mating assay for Fus3 function; type: cell-based, Saccharomyces cerevisiae; details: 50 µM
[18] = tested on: wild-type Fus3 expressing cells; test: Yeast mating assay for Fus3 function; type: cell-based, Saccharomyces cerevisiae; details: all concentrations up to 50 µM
[19] = tested on: S. cerevisiae expressing either wild-type Fus3, Fus3-asl, or no Fus3; test: Non-selective cytotoxicity control, plating of mating cultures on YPD; details: any of the three strains
[20] = biological target: Cdc28-as1·MBP-C1b2 (Saccharomyces cerevisiae, UniProt P00546, F88G); test: 1-NM-PP1 IC50, Histone H1 phosphorylation; type: biochemical; set-up: His6 (C); made in house; host or cells: Sf9 insect cells, baculovirus, co-infected with Cak1-HA3 (Cdc28-as1-His6); bacteria (MBP-Clb2); details: IC50, text b289
Sequence of Cdc28-as1·MBP-C1b2 (P00546 whole entry F88G): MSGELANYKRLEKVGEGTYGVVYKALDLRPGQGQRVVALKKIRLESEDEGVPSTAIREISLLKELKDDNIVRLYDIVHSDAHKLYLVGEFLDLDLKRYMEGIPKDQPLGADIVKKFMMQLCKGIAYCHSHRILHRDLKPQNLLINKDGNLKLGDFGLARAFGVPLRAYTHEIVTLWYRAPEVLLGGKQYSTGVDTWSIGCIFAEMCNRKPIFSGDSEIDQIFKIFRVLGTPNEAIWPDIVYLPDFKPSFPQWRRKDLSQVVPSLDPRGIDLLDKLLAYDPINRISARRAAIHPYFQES
Sequence of Cdc28-as1·MBP-C1b2 (P24869 whole entry, further chain): as the sequence (P24869 whole entry partner) above
Protocol: as §1, §2

[21] = biological target: T6, PKCd (Homo sapiens, UniProt Q05655); test: In vitro kinase inhibition assay; type: biochemical; details: concentrations up to 300 mM
T6 construct: 6-His; made in house
T6 sequence (Q05655 whole entry, species assumed): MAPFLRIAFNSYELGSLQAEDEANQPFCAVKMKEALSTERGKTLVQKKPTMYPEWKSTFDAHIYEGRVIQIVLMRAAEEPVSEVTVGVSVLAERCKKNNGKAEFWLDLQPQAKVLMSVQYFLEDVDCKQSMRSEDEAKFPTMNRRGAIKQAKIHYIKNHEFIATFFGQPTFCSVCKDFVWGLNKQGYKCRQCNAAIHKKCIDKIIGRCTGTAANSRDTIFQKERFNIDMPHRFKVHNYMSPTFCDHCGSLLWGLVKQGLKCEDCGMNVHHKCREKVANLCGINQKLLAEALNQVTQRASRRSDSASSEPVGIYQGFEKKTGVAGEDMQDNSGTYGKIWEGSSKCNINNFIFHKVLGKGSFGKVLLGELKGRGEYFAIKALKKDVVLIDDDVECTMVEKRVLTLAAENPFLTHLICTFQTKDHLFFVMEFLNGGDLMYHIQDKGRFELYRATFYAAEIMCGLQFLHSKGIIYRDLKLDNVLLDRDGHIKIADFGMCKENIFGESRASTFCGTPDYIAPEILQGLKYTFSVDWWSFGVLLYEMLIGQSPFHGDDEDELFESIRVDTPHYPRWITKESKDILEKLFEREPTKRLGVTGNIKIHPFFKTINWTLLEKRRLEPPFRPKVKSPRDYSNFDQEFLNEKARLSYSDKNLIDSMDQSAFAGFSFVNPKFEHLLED

[22] = biological target: T7, PKA (Homo sapiens, UniProt P17612); test: In vitro kinase inhibition assay; type: biochemical; details: concentrations up to 300 mM
T7 construct: purchased Pierce
Text: (§3) PKA was purchased (Pierce) and used without further purification.

[23] = biological target: T8, T339G Fyn (Homo sapiens, UniProt P06241, T342G); test: In vitro kinase inhibition assay; type: biochemical
T8 construct: GST (N); made in house; host or cells: E. coli DH5a, pGEX-KT
T8 sequence (P06241 1-534 isoform P06241-2 T339G): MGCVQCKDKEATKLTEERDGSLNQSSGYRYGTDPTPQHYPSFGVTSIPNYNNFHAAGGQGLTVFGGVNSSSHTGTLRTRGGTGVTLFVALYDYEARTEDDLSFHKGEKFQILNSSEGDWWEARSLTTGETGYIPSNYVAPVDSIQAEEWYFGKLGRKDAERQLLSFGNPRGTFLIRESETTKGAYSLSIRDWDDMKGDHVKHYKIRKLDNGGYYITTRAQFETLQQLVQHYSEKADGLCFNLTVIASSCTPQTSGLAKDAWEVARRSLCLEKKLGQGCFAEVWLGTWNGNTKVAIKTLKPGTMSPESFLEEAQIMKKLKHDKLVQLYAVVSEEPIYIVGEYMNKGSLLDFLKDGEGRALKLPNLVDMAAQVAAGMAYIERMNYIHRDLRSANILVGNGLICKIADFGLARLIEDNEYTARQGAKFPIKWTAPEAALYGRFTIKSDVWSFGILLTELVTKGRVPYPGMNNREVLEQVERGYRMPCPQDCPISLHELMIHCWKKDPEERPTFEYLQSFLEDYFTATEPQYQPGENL
Text: as §3

[24] = tested on: B cell receptor (BCR) mediated phosphorylation cascade; test: Murine B cell assay, phosphotyrosine blot; type: cell-based; set-up: dose or concentration left out as unconfirmed; details: 30 minutes, anti-IgM stimulation
Protocol: Murine B Cell Assay: Splenic lymphocytes were isolated from 6-20 week old Balb/c or C57/B6 mice. The cells were washed out of the spleen into RPMI media containing 1 mg/mL DNase in and the red blood cells were lysed in 17 mM tris-ammonium chloride, pH 7.2, Approximately 4x10^6 cells were incubated at 37°C for 30 minutes with […] of 3g or 2 in 1.1% DMSO. B cell stimulation was initiated by the addition of 2 mg of goat anti-mouse IgM (Jackson Immuno Research, cat# 115-005-075) and subsequent incubation for 5 minutes at 37(C. The cells were isolated by centrifugation (13,000 rpm, 2 min) and lysed (lysis buffer: 1% Triton X-100, 50 mM tris pH 7.4, 2 mM EDTA, 150 mM NaCl, […] PMSF, 2 mM sodium orthovanadate, 10 mg/mL leupeptin, 10 mg/mL apoprotin). The cellular debris was then pelleted at 13,000 rpm for 15 min. Cellular proteins were separated by 10% polyacrylamide gel electrophoresis and transferred to a nitrocellulose membrane by Western blotting. Phosphotyrosine containing proteins were visualized by immunoblotting with anti-phosphotyrosine antibody (Upstate Biotechnology, Inc.).

[25] = biological target: T9, WT Fyn (Homo sapiens, UniProt P06241); test: In vitro kinase inhibition assay; type: biochemical; set-up: in vitro inhibition of Fyn: dose or concentration left out as unconfirmed; details: for IC50: Table 3
T9 construct: GST (N); made in house; host or cells: E. coli DH5a, pGEX-KT
T9 sequence (P06241 1-534 isoform P06241-2): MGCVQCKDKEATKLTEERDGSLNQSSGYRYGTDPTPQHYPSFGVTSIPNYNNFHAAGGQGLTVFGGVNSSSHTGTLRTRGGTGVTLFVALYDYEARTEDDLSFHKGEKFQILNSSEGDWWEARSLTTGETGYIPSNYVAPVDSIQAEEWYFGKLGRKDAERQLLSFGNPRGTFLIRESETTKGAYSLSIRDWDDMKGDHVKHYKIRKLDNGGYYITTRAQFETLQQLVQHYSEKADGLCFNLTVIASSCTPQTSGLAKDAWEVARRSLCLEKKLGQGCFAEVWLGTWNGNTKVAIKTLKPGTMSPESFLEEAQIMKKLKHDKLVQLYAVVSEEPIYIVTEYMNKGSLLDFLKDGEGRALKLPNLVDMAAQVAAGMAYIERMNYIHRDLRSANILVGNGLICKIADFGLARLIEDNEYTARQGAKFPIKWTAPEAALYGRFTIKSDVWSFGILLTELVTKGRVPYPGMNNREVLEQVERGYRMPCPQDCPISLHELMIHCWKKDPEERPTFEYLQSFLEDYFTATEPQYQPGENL

With `CC(C)(C)n1nc(-c2ccccc2)c2c(N)ncnc21` [Compound 1] as the compound, how does the “level of protein tyrosine phosphorylation” value [1] read?
The value was “some ability to serve as cellular protein tyrosine kinase substrates”.

What does the source list for `CC(C)(C)n1nc(-c2cccc3ccccc23)c2c(N)ncnc21` [4-amino-1-(tert-butyl)-3-(1'-naphthyl)pyrazolo[3,4-d]pyrimidine]?
IC50 [2]: 0.0015 µM; increase in affinity over previously optimized inhibitors of wild type kinases [3]: 20 fold; IC50 [4]: 1 µM; tyrosine phosphorylation ([5]; varying concentrations of 6a, 30 min): strongly diminishes tyrosine phosphorylation in a concentration dependent manner within minutes; phosphotyrosine signal ([6]; 500nM 6a): no loss of phosphotyrosine signal; actin fibers and morphology ([7]; 250 nM 6a, 16 hours): clear actin fibers and appear indistinguishable from normal NIH3T3 fibroblasts; also recorded: selectively acquire a flattened morphology and selectively regain actin stress; actin fibers and morphology [8]: indistinguishable from untreated wild type cells; also recorded: no effect on this non-mutant cell line; tyrosine phosphorylation [9]: no detectable decrease in phosphorylation

How did the IC50 [10] turn out when `CC(C)(C)n1nc(Cc2cccc3ccccc23)c2c(N)ncnc21` [Compound 11] was run?
Its IC50 is 0.005 µM.

And the IC50 [11]?
Its IC50 is 0.008 µM.

And the IC50 [12]?
Its IC50 is under 0.01 µM.

And the “concentration below which none of the wild-type kinases tested are inhibited” value [13]?
Its value is at least 1 µM.

What about the IC50 [14] of the same compound?
The IC50 was over 50 µM.

What about the “growth of yeast which express Cdc28-as1” value [15] of the same compound?
The value was “completely ablated”.

And the “growth of wild-type strains” value [16]?
Its value is “no effect on the growth of wild-type strains”.

What about the decrease in mating [17] of the same compound?
Its decrease in mating is 85 fold.

What about the diploid colonies [18] of the same compound?
The diploid colonies was 0.6-1.1 x 10^5 cfu/ml.

And the “cfu/mL on YPD plates” value [19]?
Its value is “No significant decrease in cfu/mL on YPD plates”.

What about the IC50 [20] of the same compound?
Its IC50 is 0.0039 µM.

For `CC(C)(C)c1ccc(C(=O)Nc2ncnc3c2c(-c2ccccc2)nn3C(C)(C)C)cc1` [Compound 3g, 4-(p-tert-butyl)benzamido-1-tert-butyl-3-phenylpyrazolo[3,4-d]pyrimidine], which IC50 ([2]; read-out: IC50) is on record?
The IC50 was 0.43 µM.

And the IC50 ([2]; text b249, read-out: IC50)?
The IC50 was 0.43 µM.

And the “inhibits the engineered v-Src more effectively than WT Fyn” value ([3]; in vitro)?
The value was “over 700 times”.

What about the “selectivity for I338G v-Src with respect to wild type v-Src” value ([3]; in vitro) of the same compound?
Its value is at least 1000 fold.

What about the “inhibition of WT v-Src” value ([4]; limit of solubility) of the same compound?
The value was “no inhibition”.

And the “inhibition of PKCd” value [21]?
The value was “not detectably inhibited”.

And the “inhibition of PKA” value [22]?
Its value is “not detectably inhibited”.

And the “selectivity for T339G Fyn over WT Fyn” value [23]?
Its value is “greater than 300 fold”.

What about the “phosphotyrosine pattern of B cell stimulation” value [24] of the same compound?
Its value is “no effect on the phosphotyrosine pattern of B cell stimulation”.

And the “cellular IC50 relative to the in vitro value” [5]?
Its value is “roughly 100 times”.

And the tyrosine phosphorylation ([5]; 3g, 12 hours)?
The tyrosine phosphorylation was “dramatic diminution in the tyrosine phosphorylation of the putative v-Src substrate, p36; also recorded: blocks p36 phosphorylation in I338G v-Src”.

What about the IC50 ([5]; Mus musculus, NIH3T3, read-out: IC50 for p36 phosphotyrosine signal) of the same compound?
The IC50 was about 50 µM.

And the tyrosine phosphorylation ([6]; 3g, 12 hours)?
The tyrosine phosphorylation was “no loss of tyrosine phosphorylation”.

And the “cell morphology and polymerized actin” value ([7]; 3g, 48 hours)?
The value was “dramatic changes in cell morphology which are consistent with the reversal of transformation; also recorded: defined polymerized actin strings, strongly resembling the actin formations of non-transformed NIH3T3 fibroblasts; also recorded: selectively acquire a flattened morphology and selectively regain Actin stress fibers”.

With `CC(C)(C)n1nc(Cc2ccc3c(c2)OCO3)c2c(N)ncnc21` [Compound 6f, 4-amino-1-(tert-butyl)-3-piperonylpyrazolo[3,4-d]pyrimidine] as the compound, how does the “selectivity for I338G v-Src with respect to wild type v-Src” value ([3]; in vitro) read?
The value was about 120 fold.

Which results are given for `CC(C)(C)n1nc(-c2cccc(OCc3c(Cl)cccc3Cl)c2)c2c(N)ncnc21` [Compound 6e, 4-amino-1-(tert-butyl)-3-(m-(2',6'-dichloro)benzyloxyphenyl) pyrazolo[3,4-d]pyrimidine]?
IC50 ([2]; Table 3, read-out: 1338G v-Src): 0.13 µM; IC50 ([4]; Table 3, read-out: vSrc): 300 µM

Which results are given for `CC(C)(C)n1nc(COc2cccc3ccccc23)c2c(N)ncnc21` [Compound 6i, 4-amino-1(tert-butyl)-3-(1'-naphthoxymethyl)pyrazolo[3,4-d]pyrimidine]?
IC50 ([2]; Table 3, read-out: 1338G v-Src): 0.045 µM; selectivity for I338G v-Src with respect to wild type v-Src ([3]; in vitro): > 6500 fold; IC50 ([4]; Table 3, read-out: vSrc): > 300 µM; IC50 [25]: > 300 µM

Which results are given for `CC(C)(C)n1nc(-c2ccccc2)c2c(N)ncnc21` [2 (Figure 14), 4-Amino-1-tert-butyl-3-phenylpyrazolo [3,4-d] pyrimidine]?
IC50 [2]: 0.43 µM; phosphotyrosine pattern of B cell stimulation [24]: significant reduction in tyrosine phosphorylation

For `CC(C)(C)n1nc(-c2cccc(OCc3ccccc3)c2)c2c(N)ncnc21` [Compound 6d, 4-amino-1-(tert-butyl)-3-(m-benzyloxyphenyl)pyrazolo[3,4-d]pyrimidine], which “selectivity for I338G v-Src with respect to wild type Fyn” value ([3]; in vitro) is on record?
Its value is over 100 fold.

With `CC(C)(C)n1nc(-c2ccc3ccccc3c2)c2c(N)ncnc21` [Compound 6b, 4-amino-1-(tert-butyl)-3-(2'-naphthyl)pyrazolo[3,4-d]pyrimidine] as the compound, how does the “increase in affinity over previously optimized inhibitors of wild type kinases” value [3] read?
The value was 20 fold.

With `CC(C)(C)c1ccc(-c2nn(C(C)(C)C)c3ncnc(N)c23)cc1` [Compound 6g, 4-amino-1-(tert-butyl)-3-(p-tert-butylphenyl)pyrazolo[3,4 d]pyrimidine] as the compound, how does the IC50 ([2]; Table 3, read-out: 1338G v-Src) read?
The IC50 was 0.099 µM.

And the IC50 ([4]; Table 3, read-out: vSrc)?
Its IC50 is 65 µM.

For `OC[C@H]1O[C@@H](n2cnc3c(NOC4CCCC4)ncnc32)[C@H](O)[C@@H]1O` [N-6 cyclopentyloxyadenosine], which “in vitro inhibition of WT v-Src” value [4] is on record?
Its value is “no detectable in vitro inhibition”.

And the “in vitro inhibition of Fyn” value [25]?
The value was “no detectable in vitro inhibition”.

Which results are given for `CC(C)(C)n1nc(Cc2ccc3ccccc3c2)c2c(N)ncnc21` [Compound 6j, 4-amino-1-(tert-butyl)-3-(2'-naphthylmethyl)pyrazolo[3,4-d]pyrimidine]?
IC50 ([2]; Table 3, read-out: 1338G v-Src): 0.02 µM; IC50 ([4]; Table 3, read-out: vSrc): > 300 µM; IC50 [25]: > 300 µM
